Experimental findings from PubChem BioAssay AID1259411 (Chemical Carcinogenesis Research Information System (CCRIS), 2018) are described below.

This data set deals with rodent carcinogenicity bioassays, tumor incidence. The data set can be described thus: CCRIS carcinogenicity studies. The method, boiled down:
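Archive of carcinogenicity, mutagenicity, tumor promotion and tumor inhibition results drawn from journals, NCI reports and other sources, expert-reviewed; covers 1985-2011 and is no longer updated.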

Activity calls are given as the source filed them. No rule for the calls is given here.

As to `C=CC(=O)O`, the carcinogen call was “inactive; negative” (Species: MOUSE, Strain/Sex: C3H/MALE, Route: DERMAL, Dose: 0, 0.20 MG IN 25 µL ACETONE 3/WK FOR LIFESPAN (STUDY DURATION: LIFESPAN)); “inactive; negative” (Species: RAT, Strain/Sex: WISTAR/FEMALE, Route: ORAL, Dose: 0, 120, 400, 1200 PPM IN DRINKING WATER FOR 28 MO (STUDY DURATION: 28 MO), Dose: 0, 120, 400, 1200 PPM IN DRINKING WATER FOR 28 MO (STUDY DURATION: 28 MO)); “inactive; negative” (Species: RAT, Strain/Sex: WISTAR/MALE, Route: ORAL, Dose: 0, 120, 400, 1200 PPM IN DRINKING WATER FOR 26 MO (STUDY DURATION: 26 MO), Dose: 0, 120, 400, 1200 PPM IN DRINKING WATER FOR 26 MO (STUDY DURATION: 26 MO)).
Turning to `COc1ccc(N)cc1`, the carcinogen call reads like this: (Species: MOUSE, Strain/Sex: B6C3F1/FEMALE, Route: ORAL, Dose: 0, 0.5, 1.0% OF DIET FOR 103 WK (STUDY DURATION: 104 WK), Dose: 0, 0.5, 1.0% OF DIET FOR 103 WK (STUDY DURATION: 104 WK)) “inactive; negative”; (Species: MOUSE, Strain/Sex: B6C3F1/MALE, Route: ORAL, Dose: 0, 0.5, 1.0% OF DIET FOR 103 WK (STUDY DURATION: 104 WK), Dose: 0, 0.5, 1.0% OF DIET FOR 103 WK (STUDY DURATION: 104 WK)) “inactive; negative”; (Species: RAT, Strain/Sex: F344/FEMALE, Route: ORAL, Dose: 0, 0.3, 0.6% OF DIET FOR 103 WK (STUDY DURATION: 104-105 WK), Dose: 0, 0.3, 0.6% OF DIET FOR 103 WK (STUDY DURATION: 104-105 WK)) “inactive; negative”; (Species: RAT, Strain/Sex: F344/MALE, Route: ORAL, Dose: 0, 0.3, 0.6% OF DIET FOR 103 WK (STUDY DURATION: 104-105 WK), Dose: 0, 0.3, 0.6% OF DIET FOR 103 WK (STUDY DURATION: 104-105 WK), Tumor Site: Type of Lesion: PREPUTIAL GLAND: ADENOMA OR CARCINOMA) “equivocal”.
For the compound `Cn1c(=O)c2[nH]cnc2n(C)c1=O`, the carcinogen call by setting is: (Species: MOUSE, Strain/Sex: B6C3F1/FEMALE, Route: GAVAGE, Dose: 0, 7.5, 25, 75 MG/KG BW IN CORN OIL 5 D/WK FOR 726 D (STUDY DURATION: 2 YR), Dose: 0, 7.5, 25, 75 MG/KG BW IN CORN OIL 5 D/WK FOR 726 D (STUDY DURATION: 2 YR)) “inactive; negative”; (Species: MOUSE, Strain/Sex: B6C3F1/MALE, Route: GAVAGE, Dose: 0, 15, 50, 150 MG/KG BW IN CORN OIL 5 D/WK FOR 726 D (STUDY DURATION: 2 YR), Dose: 0, 15, 50, 150 MG/KG BW IN CORN OIL 5 D/WK FOR 726 D (STUDY DURATION: 2 YR)) “inactive; negative”; (Species: RAT, Strain/Sex: F344/FEMALE, Route: GAVAGE, Dose: 0, 7.5, 25, 75 MG/KG BW IN CORN OIL 5 D/WK FOR 729 D (STUDY DURATION: 2 YR), Dose: 0, 7.5, 25, 75 MG/KG BW IN CORN OIL 5 D/WK FOR 729 D (STUDY DURATION: 2 YR)) “inactive; negative”; (Species: RAT, Strain/Sex: F344/MALE, Route: GAVAGE, Dose: 0, 7.5, 25, 75 MG/KG BW IN CORN OIL 5 D/WK FOR 729 D (STUDY DURATION: 2 YR), Dose: 0, 7.5, 25, 75 MG/KG BW IN CORN OIL 5 D/WK FOR 729 D (STUDY DURATION: 2 YR)) “inactive; negative”.
With `O[C@H]1C=Cc2ccc3cc4ccccc4nc3c2[C@@H]1O`, the carcinogen call by setting is: (Species: MOUSE, Strain/Sex: SWISS/FEMALE, Route: INTRAPERITONEAL, Dose: 0, 1.05 UMOL GIVEN AS 150 NMOL IN 5 µL DMSO WITHIN 24 HR OF BIRTH, 300 NMOL IN 10 µL DMSO ON D 8 OF LIFE, AND 600 NMOL I) “inactive; negative”; (Species: MOUSE, Strain/Sex: SWISS/MALE, Route: INTRAPERITONEAL, Dose: 0, 1.05 UMOL GIVEN AS 150 NMOL IN 5 µL DMSO WITHIN 24 HR OF BIRTH, 300 NMOL IN 10 µL DMSO ON D 8 OF LIFE, AND 600 NMOL I) “inactive; negative”.
Take `O=[N+]([O-])c1cc(O)c2ccc3cccc4ccc1c2c34`: where the note is “Species: RAT, Strain/Sex: STRAIN-CD/FEMALE, Route: SUBCUTANEOUS, Dose: 0, 63 UMOL (TOTAL DOSE) ADMINISTERED OVER 8 WK BEGINNING WITHIN 24 HR OF BIRTH (STUDY DURATION: 86 WK)”, the carcinogen call is “inactive; negative”.
In the case of `CC(N)=O`, the carcinogen call (Species: RAT, Strain/Sex: WISTAR/MALE, Route: ORAL, Dose: 1.25, 2.5, 5% IN DIET FOR ONE YR, Dose: 1.25, 2.5, 5% IN DIET FOR ONE YR, Tumor Site: Type of Lesion: LIVER: TRABECULAR CARCINOMA, ADENOCARCINOMA, HEPATOMA) was “active; positive”.
Consider `ClCC(Br)CBr` (stereo not drawn), for which the carcinogen call is “active; positive” (Species: MOUSE, Strain/Sex: B6C3F1/FEMALE, Route: GAVAGE, Dose: 0, 110, 209 MG/KG, TWA, Dose: 0, 110, 209 MG/KG, TWA, Tumor Site: Type of Lesion: STOMACH: SQUAMOUS CELL CARCINOMA); “active; positive” (Species: MOUSE, Strain/Sex: B6C3F1/FEMALE, Route: INHALATION, Dose: 0, 0.6, 3.0 PPM 6 HR/D, 5 D/WK FOR 76-103 WK, Dose: 0, 0.6, 3.0 PPM 6 HR/D, 5 D/WK FOR 76-103 WK, Tumor Site: Type of Lesion: NASAL CAVITY: CARCINOMA (NOS), SQUAMOUS CELL CARCINOMA, SQUAMOUS CELL CARCINOMA OR SQUAMOUS CELL PAPILLOMA, ADENOCARCINO); “active; positive” (Species: MOUSE, Strain/Sex: B6C3F1/MALE, Route: GAVAGE, Dose: 0, 114, 219 MG/KG, TWA, Dose: 0, 114, 219 MG/KG, TWA, Tumor Site: Type of Lesion: STOMACH: SQUAMOUS CELL CARCINOMA); “active; positive” (Species: MOUSE, Strain/Sex: B6C3F1/MALE, Route: INHALATION, Dose: 0, 0.6, 3.0 PPM 6 HR/D, 5 D/WK FOR 76 WK, Dose: 0, 0.6, 3.0 PPM 6 HR/D, 5 D/WK FOR 76 WK, Tumor Site: Type of Lesion: NASAL CAVITY: CARCINOMA (NOS), SQUAMOUS CELL CARCINOMA, ADENOMATOUS POLYP (NOS), LUNG: ALVEOLAR/BRONCHIOLAR ADENOMA, ALV); “active; positive” (Species: RAT, Strain/Sex: F344/FEMALE, Route: INHALATION, Dose: 0, 0.6, 3.0 PPM 6 HR/D, 5 D/WK FOR 84-103 WK, Dose: 0, 0.6, 3.0 PPM 6 HR/D, 5 D/WK FOR 84-103 WK, Tumor Site: Type of Lesion: NASAL CAVITY: ADENOMATOUS POLYP (NOS), ADENOMA (NOS), SQUAMOUS CELL PAPILLOMA, CARCINOMA (NOS), ADENOCARCINOMA (NOS), NA); “active; positive” (Species: RAT, Strain/Sex: F344/MALE, Route: INHALATION, Dose: 0, 0.6, 3.0 PPM 6 HR/D, 5 D/WK FOR 84-103 WK, Dose: 0, 0.6, 3.0 PPM 6 HR/D, 5 D/WK FOR 84-103 WK, Tumor Site: Type of Lesion: NASAL CAVITY: ADENOMATOUS POLYP (NOS), ADENOMA (NOS), SQUAMOUS CELL PAPILLOMA, SQUAMOUS CELL CARCINOMA, CARCINOMA (NOS)). The carcinogen call is “active; positive” (Species: RAT, Strain/Sex: OSBORNE-MENDEL/FEMALE, Route: GAVAGE, Dose: 0, 15, 29 MG/KG, TWA, Dose: 0, 15, 29 MG/KG, TWA, Tumor Site: Type of Lesion: STOMACH: SQUAMOUS CELL CARCINOMA, SQUAMOUS CELL PAPILLOMA, MAMMARY GLAND: ADENOCARCINOMA) and “active; positive” (Species: RAT, Strain/Sex: OSBORNE-MENDEL/MALE, Route: GAVAGE, Dose: 0, 15, 29 MG/KG, TWA, Dose: 0, 15, 29 MG/KG, TWA, Tumor Site: Type of Lesion: STOMACH: SQUAMOUS CELL CARCINOMA, MULTIPLE SITES: HEMANGIOSARCOMA OR HEMANGIOMA).
